Source: publication PMC4166607, “Distinct ETA Receptor Binding Mode of Macitentan As Determined by Site Directed Mutagenesis” (PLoS ONE, 2014)
Read-outs that look alike come from different tables or passages of the source. Square brackets hold non-standard residues; d marks the D form. Peptide text beside a SMILES is read from it.

Legend:
[1] = target: T1, ETA receptor variant I355A (Homo sapiens, UniProt P25101, I355A)
[2] = target: T2, ETA receptor variant R326Q (Homo sapiens, UniProt P25101, R326Q); assay: cell-based
T2 sequence (P25101 21-427 R326Q): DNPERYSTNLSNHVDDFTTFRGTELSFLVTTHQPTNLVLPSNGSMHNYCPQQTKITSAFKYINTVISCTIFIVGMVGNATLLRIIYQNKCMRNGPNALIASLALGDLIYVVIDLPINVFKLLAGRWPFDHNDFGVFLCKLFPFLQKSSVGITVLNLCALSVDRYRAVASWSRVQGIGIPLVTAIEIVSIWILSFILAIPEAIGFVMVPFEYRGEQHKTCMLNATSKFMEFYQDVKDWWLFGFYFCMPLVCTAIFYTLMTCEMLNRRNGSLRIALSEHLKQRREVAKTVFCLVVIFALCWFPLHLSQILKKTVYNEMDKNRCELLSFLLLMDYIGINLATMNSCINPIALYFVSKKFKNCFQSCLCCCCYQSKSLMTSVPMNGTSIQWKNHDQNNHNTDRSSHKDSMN

[3] = target: T1, ETA receptor variant I355A; assay: cell-based
wildtype ETA receptor [4] = target: T3, wildtype ETA receptor (Homo sapiens, UniProt P25101); assay: cell-based
T3 sequence (P25101 21-427): as the sequence (P25101 21-427 R326Q) above, with Q306R counted along it

[5] = target: T2, ETA receptor variant R326Q
wildtype ETA receptor [6] = target: T3, wildtype ETA receptor
[7] = target: T4, ETA receptor variant L322A (Homo sapiens, UniProt P25101, L322A); assay: cell-based
T4 sequence (P25101 21-427 L322A): as the sequence (P25101 21-427 R326Q) above, with L302A, Q306R counted along it

ETA receptor [8] = target: T5, ETA receptor (Homo sapiens, UniProt P25101); assay: cell-based
T5 sequence (P25101 21-427): as the sequence (P25101 21-427 R326Q) above, with Q306R counted along it

[9] = target: T4, ETA receptor variant L322A
[10] = target: T6, ETA receptor variant K329M (Homo sapiens, UniProt P25101, K329M)
T6 sequence (P25101 21-427 K329M): as the sequence (P25101 21-427 R326Q) above, with Q306R, K309M counted along it

[11] = cited from earlier work
[12] = target: T7, ETA receptor variant D351N (Homo sapiens, UniProt P25101, D351N); assay: cell-based
T7 sequence (P25101 21-427 D351N): as the sequence (P25101 21-427 R326Q) above, with Q306R, D331N counted along it

ETA receptor [13] = target: T5, ETA receptor; details: cited from earlier work; for ETA receptor occupancy half-life (t1/2): PASMC
[14] = target: T6, ETA receptor variant K329M; assay: cell-based
[15] = target: T7, ETA receptor variant D351N
[16] = target: T8, ETA receptor variant Q165A (Homo sapiens, UniProt P25101, Q165A); assay: cell-based
T8 sequence (P25101 21-427 Q165A): as the sequence (P25101 21-427 R326Q) above, with Q145A, Q306R counted along it

[17] = cited from earlier work; remark: listed apart in the source
[18] = target: T8, ETA receptor variant Q165A
ETA receptor [19] = target: T5, ETA receptor; details: PASMC, 5 µM ET-1, 20 min stimulation, maximal ERA concentration 1 µM, arithmetic means, normalized to macitentan analogs 1 or 8 (100%)
[20] = pKa1, no method or reference printed
[21] = pKa2, no method or reference printed

T1 sequence (P25101 21-427 I355A): as the sequence (P25101 21-427 R326Q) above, with Q306R, I335A counted along it

SMILES	IC50 shift versus wildtype (fold) [1]	IC50 [2]	IC50 [3]	IC50 (wildtype ETA receptor [4])	IC50 shift versus wildtype (fold) [5]	IC50 shift versus wildtype (fold) (wildtype ETA receptor [6])	IC50 [7]	IC50 (ETA receptor [8])	IC50 shift versus wildtype (fold) [9]	also measured
CCNS(=O)(=O)Nc1ncnc(OCCOc2ncc(Br)cn2)c1-c1ccc(Br)cc1 [macitentan analog 2]	0.8 fold	34 nM	3.9 nM	4.8 nM	7.1 fold	1 fold	1090 nM	5.1e-10 M	228 fold	–
COC(c1ccccc1)(c1ccccc1)[C@H](Oc1nc(C)cc(C)n1)C(=O)O [ambrisentan]	2.9 fold	887 nM	8.1 nM	2.8 nM	317 fold	1.0 fold	41 nM	4.4e-10 M	15 fold	IC50 shift versus wildtype (fold) [10]: 0.2 fold; pKa [11]: 3.5; IC50 [12]: 4.5 nM; ETA receptor occupancy half-life (t1/2) (ETA receptor [13]): 1 min; IC50 [14]: 0.58 nM; IC50 shift versus wildtype (fold) [15]: 1.6 fold; IC50 [16]: 3160 nM; logD [17]: −0.4; IC50 shift versus wildtype (fold) [18]: 1129 fold
COc1ccccc1Oc1c(NS(=O)(=O)c2ccc(C(C)(C)C)cc2)nc(-c2ncccn2)nc1OCCO [bosentan]	–	–	–	–	–	–	–	–	–	pKa [11]: 5.1; Insurmountability (%) (ETA receptor [19]): 0%; logD [17]: 1.3
COc1ccccc1Oc1c(NS(=O)(=O)c2ccc(C(C)C)cn2)nc(-c2ccnc(-c3nnn[nH]3)c2)nc1OCCO [tezosentan]	54 fold	13 nM	14 nM	0.26 nM	50 fold	1 fold	0.53 nM	5.2e-11 M	2.0 fold	pKa (physchem; [20]): 4.4; pKa (physchem; [21]): 4.1
CCCNS(=O)(=O)Nc1ncnc(OCCOc2ncc(I)cn2)c1-c1ccc(Br)cc1 [macitentan analog 8]	–	–	–	–	–	–	–	6.5e-11 M	–	–
CCS(=O)(=O)Nc1ncnc(OCCOc2ncc(Br)cn2)c1-c1ccc(Br)cc1 [macitentan analog 4]	–	–	–	–	–	–	–	1.2e-09 M	–	–
CCCNS(=O)(=O)Nc1ncnc(OCCOc2ncc(OC)cn2)c1-c1ccc(Br)cc1 [macitentan analog 7]	1.1 fold	268 nM	45 nM	41 nM	6.5 fold	1 fold	2690 nM	3.9e-09 M	66 fold	–
CCCS(=O)(=O)Nc1ncnc(OCCOc2ncc(Br)cn2)c1-c1ccc(Br)cc1 [macitentan analog 5]	–	–	–	–	–	–	–	3.8e-10 M	–	–
CCCNS(=O)(=O)Nc1ncnc(OCCCCOc2ncc(Br)cn2)c1-c1ccc(Br)cc1 [macitentan analog 12]	–	–	–	–	–	–	–	2.55e-07 M	–	–
CCCNS(=O)(=O)Nc1ncnc(OCCOc2ncc(Br)cn2)c1-c1ccc(Br)cc1 [macitentan, N-[5-(4-bromophenyl)-6-[2-[(5-bromo-2-pyrimidinyl)oxy]ethoxy]-4-pyrimidinyl]-N′-propylsulfamide]	0.9 fold	7.6 nM	1.1 nM	1.2 nM	6.3 fold	1.0 fold	178 nM	1.7e-10 M	148 fold	IC50 shift versus wildtype (fold) [10]: 0.5 fold; IC50 [12]: 1.5 nM; Insurmountability (%) (ETA receptor [19]): 64%; ETA receptor occupancy half-life (t1/2) (ETA receptor [13]): ~17 min; increase of receptor occupancy half-life compared to ambrisentan and bosentan (ETA receptor [13]; human primary PASMC): ~20 fold; IC50 [14]: 0.58 nM; IC50 shift versus wildtype (fold) [15]: 1.2 fold; IC50 [16]: 209 nM; logD [17]: 2.9; IC50 shift versus wildtype (fold) [18]: 174 fold
CCCNS(=O)(=O)Nc1ncnc(OCCOc2ncc(Br)cn2)c1-c1ccc(Cl)cc1 [macitentan analog 9]	0.6 fold	46 nM	8.6 nM	14 nM	3.3 fold	1 fold	1900 nM	4.7e-10 M	136 fold	–
CCCCS(=O)(=O)Nc1ncnc(OCCOc2ncc(Br)cn2)c1-c1ccc(Br)cc1 [macitentan analog 6]	–	–	–	–	–	–	–	6.2e-10 M	–	–
CCCCNS(=O)(=O)Nc1ncnc(OCCOc2ncc(Br)cn2)c1-c1ccc(Br)cc1 [macitentan analog 1]	0.3 fold	1.2 nM	0.047 nM	0.17 nM	7.1 fold	1 fold	32 nM	9.3e-11 M	188 fold	–
O=S(=O)(NCc1ccccc1)Nc1ncnc(OCCOc2ncc(Br)cn2)c1-c1ccc(Br)cc1 [macitentan analog 3]	–	–	–	–	–	–	–	8.5e-11 M	–	–
CCCNS(=O)(=O)Nc1ncnc(OCCCOc2ncc(Br)cn2)c1-c1ccc(Br)cc1 [macitentan analog 11]	–	–	–	–	–	–	–	3.5e-08 M	–	–
CCCNS(=O)(=O)Nc1ncnc(OCCOc2ccc(Br)cc2)c1-c1ccc(Br)cc1 [macitentan analog 10]	–	–	–	–	–	–	–	4.31e-07 M	–	–
COc1ccccc1Oc1c(NS(=O)(=O)c2ccc(C)cn2)nc(-c2ccnc(-c3nnn[nH]3)c2)nc1OCCO [clazosentan]	32 fold	2.2 nM	2.7 nM	0.085 nM	26 fold	1 fold	0.1 nM	3.3e-11 M	1.2 fold	pKa (physchem; [20]): 4.5; pKa (physchem; [21]): 3.3
CC(C)C[C@@H]1NC(=O)[C@@H](C(C)C)NC(=O)[C@@H]2CCCN2C(=O)[C@@H](CC(=O)O)NC(=O)[C@@H](Cc2c[nH]c3ccccc23)NC1=O [BQ123] (cyclo(L[dW][dD]P[dV]))	–	–	–	–	–	–	–	–	–	IC50 (ETA receptor [8]; log IC50 (M), calcium flux, PASMC, 4 nM–[…] nM ET-1 (EC80)): 1.26e-09 M
